Experimental data taken from PMC12454493, “Insight on novel sulfamoylphenyl pyrazole derivatives as anticancer carbonic anhydrase inhibitors” (Molecular Diversity, 2024).
Like-named read-outs stand apart in the source and are kept apart here.

Tests used:
[1] = system: panel of 60 cancer cell lines; assay: NCI-60 one-dose SRB screen, range over the whole panel; format: cell-based; settings: Homo sapiens; single dose 10 µM, SRB assay, range over the tested cell lines; read-out: growth inhibition (GI %) range over the panels
Protocol: The National Cancer Institute (NCI) Developmental Therapeutic Program (www.dtp.nci.nih.gov) selected the 20 novel synthesized compounds 4a-e, 5a-e, 6a-c, 9a-e, 10 and 11 to test for their anticancer activity at a single dose of 10 µM using SRB assay. […] Supplementary Data S3; Table S1 presents the detailed screening results of the most promising compounds. The preliminary screening’s detailed results for the remaining compounds are elucidated in the (Supplementary Data S3; Table S2).
The guidelines of the Drug Evaluation Branch’s protocol at the NCI in Bethesda served as the basis for the in vitro anticancer screening assays. at one dose 10 µM against a panel of 60 cancer cell lines. The human tumor cell lines used belonged to nine panels: leukemia, melanoma, lung, colon, CNS, ovarian, renal, prostate and breast cancers using the sulforhodamine B (SRB) assay in a 48 h drug exposure protocol.

SF-295 = assay: NCI-60 one-dose SRB screen (CNS Cancer); format: cell-based; settings: Homo sapiens, single dose 10 µM, 48 h, read-out: Growth inhibition percent (GI %)
SNB-19 = assay: NCI-60 one-dose SRB screen (CNS Cancer); format: cell-based; settings: Homo sapiens, single dose 10 µM, 48 h, read-out: Growth inhibition percent (GI %)
SF-539 = assay: NCI-60 one-dose SRB screen (CNS Cancer); format: cell-based; settings: Homo sapiens, single dose 10 µM, 48 h, read-out: Growth inhibition percent (GI %)
U251 = assay: NCI-60 one-dose SRB screen (CNS Cancer); format: cell-based; settings: Homo sapiens, U-251, single dose 10 µM, 48 h, read-out: Growth inhibition percent (GI %)
SF-268 = assay: NCI-60 one-dose SRB screen (CNS Cancer); format: cell-based; settings: Homo sapiens, single dose 10 µM, 48 h, read-out: Growth inhibition percent (GI %)
SNB-75 = assay: NCI-60 one-dose SRB screen (CNS Cancer); format: cell-based; settings: Homo sapiens, single dose 10 µM, 48 h, read-out: Growth inhibition percent (GI %)
SK-OV-3 = assay: NCI-60 one-dose SRB screen (Ovarian cancer); format: cell-based; settings: Homo sapiens, single dose 10 µM, 48 h, read-out: Growth inhibition percent (GI %)
OVCAR-5 = assay: NCI-60 one-dose SRB screen (Ovarian cancer); format: cell-based; settings: Homo sapiens, single dose 10 µM, 48 h, read-out: Growth inhibition percent (GI %)
NCI-H460 = assay: NCI-60 one-dose SRB screen (Non-Small Cell Lung Cancer); format: cell-based; settings: Homo sapiens, single dose 10 µM, 48 h, read-out: Growth inhibition percent (GI %)
EKVX = assay: as above; format: cell-based; settings: Homo sapiens, single dose 10 µM, 48 h, read-out: Growth inhibition percent (GI %)
NCI-H23 = assay: as above; format: cell-based; settings: Homo sapiens, single dose 10 µM, 48 h, read-out: Growth inhibition percent (GI %)
HOP-92 = assay: as above; format: cell-based; settings: Homo sapiens, single dose 10 µM, 48 h, read-out: Growth inhibition percent (GI %)
HOP-62 = assay: as above; format: cell-based; settings: Homo sapiens, single dose 10 µM, 48 h, read-out: Growth inhibition percent (GI %)
A549/ATCC = assay: as above; format: cell-based; settings: Homo sapiens, single dose 10 µM, 48 h, read-out: Growth inhibition percent (GI %)
NCI-H522 = assay: as above; format: cell-based; settings: Homo sapiens, single dose 10 µM, 48 h, read-out: Growth inhibition percent (GI %)
NCI-H226 = assay: as above; format: cell-based; settings: Homo sapiens, single dose 10 µM, 48 h, read-out: Growth inhibition percent (GI %)
NCI-H322M = assay: as above; format: cell-based; settings: Homo sapiens, single dose 10 µM, 48 h, read-out: Growth inhibition percent (GI %)
[2] = system: MCF-7 breast cancer cell line; assay: Apoptotic assay, Annexin V-FITC/propidium iodide; format: cell-based, human
Protocol: S.1.4. Cell cycle analysis and Apoptotic assay
S.1.4.1. Cell cycle analysis […]
(§1) Briefly, cell lines were cultured and incubated with each of the tested compounds for 48 h. Then, the cells were collected by centrifugation and resuspended in 500 μl of 1X binding buffer. 5 μl of Annexin V-FITC was added and 5 μl of propidium iodide (PI […], optional.). The cells were incubated at room temperature for 5 min in the dark. Annexin V-FITC binding was analyzed by flow cytometry (Ex = 488 nm; Em = 530 nm) using FITC signal detector and PI staining was analyzed by the phycoerythrin emission signal detector.
S.1.4.2. Apoptotic assay: cell lines were cultured and incubated with each of the tested compounds for 48 h.
as §1, with “Then,” for “Briefly, cell lines were cultured and incubated with each of the tested compounds for 48 h. Then,”, “the” for “The”

[3] = system: MCF-7 breast cancer cell line; assay: Cell cycle analysis by flow cytometry; format: cell-based, human; settings: 24 h
[4] = system: MCF-7 breast cancer cell line; assay: In vitro cytotoxicity, MTT assay; settings: Homo sapiens
Protocol: In vitro cytotoxic activity:
Firstly, cultures were delivered into sterile area then each vial was supplied with 3 mL of medium or balanced salt solution free from phenol red and serum. Cultures were subjected to incubation foe 2-4 g. After the incubation period, MTT solubilization solution was added to remove the produced formazan crystals. Spectrophotometric measurement of absorbance was carried out at 690 nm for the background which then subtracted from absorbance measured at 570 nm. Five different drug concentrations were used 100, 25, 6.3, 1.6 and 0.4 nM and measured in triplicate.
was determined using Annexin V-FITC Apoptosis Detection Kit (Bio Vision) according to the manufacturer’s procedures. Briefly, cell lines were cultured and incubated with each of the tested compounds for 48 h. Then, the cells were collected by centrifugation and resuspended in 500 μl of 1X binding buffer. 5 μl of Annexin V-FITC was added and 5 μl of propidium iodide (PI 50 mg/ml, optional.). The cells were incubated at room temperature for
Then, the cells were collected by centrifugation and resuspended in 500 μl of 1X binding buffer. 5 μl of Annexin V-FITC was added and 5 μl of propidium iodide (PI 50 mg/ml, optional.). the cells were incubated at room temperature for 5 min in the dark.

[5] = MCF-7, hypoxic conditions, at IC50 (3.50 µM)
[6] = MCF-7, normal conditions, at IC50 (5.21 µM)

Row | Structure (SMILES) | inhibition at 10 µM (SF-295) | inhibition at 10 µM (SNB-19) | inhibition at 10 µM (SF-539) | inhibition at 10 µM (U251) | inhibition at 10 µM (SF-268) | inhibition at 10 µM (SNB-75) | inhibition at 10 µM (SK-OV-3) | inhibition at 10 µM (OVCAR-5) | inhibition at 10 µM (NCI-H460) | inhibition at 10 µM (EKVX) | inhibition at 10 µM (NCI-H23) | inhibition at 10 µM (HOP-92) | inhibition at 10 µM (HOP-62) | inhibition at 10 µM (A549/ATCC) | inhibition at 10 µM (NCI-H522) | inhibition at 10 µM (NCI-H226) | inhibition at 10 µM (NCI-H322M) | melting point | further results
1 | NS(=O)(=O)c1ccc(NC(=O)COC(=O)c2cn(-c3ccc(S(N)(=O)=O)cc3)nc2-c2ccc(Br)cc2)cc1 [Compound 4d, 2-Oxo-2-[(4-sulfamoylphenyl)amino] ethyl 3-(4-bromophenyl)-1-(4-sulfamoylphenyl)-1H-pyrazole-4-carboxylate] | < 5% | 24.1% | 26.7% | 25% | 34.8% | 64.3% | < 5% | 12.3% | < 5% | 21% | < 5% | 49.6% | < 5% | < 5% | 19.8% | < 5% | 21.5% | – | inhibition at 10 µM [1]: 8.46 to 86.5%
2 | CCOC(=O)c1ccc(NC(=O)COC(=O)c2cn(-c3ccc(S(N)(=O)=O)cc3)nc2-c2ccc(C)cc2)cc1 [Compound 5b, 2-[(4-(Ethoxycarbonyl)phenyl)amino]-2-oxoethyl 1-(4-sulfamoylphenyl)-3-(p-tolyl)-1H-pyrazole-4-carboxylate] | 54.8% | 48.4% | 60.9% | 54.1% | 55.4% | 62.9% | < 5% | 33.1% | 60.8% | 55.6% | 40.3% | 56.3% | < 5% | 51.1% | 49% | 43% | 23.7% | – | Apoptosis % Early % ([2]; MCF-7, hypoxic conditions): 21.41%; Apoptosis % Late % ([2]; MCF-7, hypoxic conditions): 11.49%; Apoptosis % Total % ([2]; MCF-7, hypoxic conditions): 37.31%; Necrosis % ([2]; MCF-7, hypoxic conditions): 4.41%; Apoptosis % Early % ([2]; MCF-7, normal conditions): 13.52%; Apoptosis % Late % ([2]; MCF-7, normal conditions): 25.05%; Necrosis % ([2]; MCF-7, normal conditions): 3.76%; DNA content % G0-G1 [3, 5]: 48.13%; DNA content % G2/M [3, 5]: 32.28%; DNA content % S [3, 5]: 19.59%; DNA content % G0-G1 [3, 6]: 67.39%; DNA content % G2/M [3, 6]: 3.05%; DNA content % S [3, 6]: 29.56%; IC50 ([4]; MCF7, read-out: IC50 (µM) ± SD cytotoxic activity, MCF-7, MTT, normal conditions): 5.21 ± 0.21 µM; IC50 ([4]; MCF7, read-out: IC50 (µM) ± SD cytotoxic activity, MCF-7, MTT, under hypoxia): 3.5 ± 0.14 µM
3 | NC(=S)NNC(=O)c1cn(-c2ccc(S(N)(=O)=O)cc2)nc1-c1ccc(Br)cc1 [Compound 9d, 2-[3-(4-Bromophenyl)-1-(4-sulfamoylphenyl)-1H-pyrazole-4-carbonyl] hydrazine-1-carbothioamide] | < 5% | < 5% | 6.59% | < 5% | < 5% | 12.1% | < 5% | < 5% | < 5% | < 5% | < 5% | < 5% | < 5% | < 5% | 8.15% | < 5% | 14.9% | 238 to 241 °C | –
4 | CS(=O)(=O)c1ccc(-c2nn(-c3ccc(S(N)(=O)=O)cc3)cc2C(=O)NNC(N)=S)cc1 [Compound 9e, 2-[3-(4-(Methylsulfonyl)phenyl)-1-(4-sulfamoylphenyl)-1H-pyrazole-4-carbonyl] hydrazine-1-carbothioamide] | < 5% | < 5% | < 5% | < 5% | < 5% | 15.9% | < 5% | < 5% | < 5% | < 5% | < 5% | < 5% | < 5% | < 5% | 12.3% | 6.39% | < 5% | 261 to 262 °C | –
5 | Cc1ccc(-c2nn(-c3ccc(S(N)(=O)=O)cc3)cc2-c2nnc(N)s2)cc1 [Compound 10, 4-[4-(5-Amino-1,3,4-thiadiazol-2-yl)-3-(p-tolyl)-1H-pyrazol-1-yl] benzenesulfonamide] | < 5% | 7.72% | 15.6% | 9.42% | < 5% | 19.5% | < 5% | < 5% | < 5% | 10.5% | 10.4% | 30.8% | < 5% | < 5% | 15.3% | 5.79% | < 5% | 230 to 234 °C | –
6 | Cc1ccc(-c2nn(-c3ccc(S(N)(=O)=O)cc3)cc2-c2n[nH]c(=S)[nH]2)cc1 [Compound 11, 4-[4-(5-Mercapto-1H-1,2,4-triazol-3-yl)-3-(p-tolyl)-1H-pyrazol-1-yl] benzenesulfonamide] | 9.95% | 13% | 8.18% | 5.33% | 9.56% | 23.9% | < 5% | < 5% | < 5% | < 5% | < 5% | < 5% | < 5% | < 5% | < 5% | < 5% | < 5% | 255 to 257 °C | –
